Consider 5 compounds from patent US7691842B2, “Tricyclic 6-alkylidene-penems as β-lactamase inhibitors” (Wyeth LLC, priority 2002, dated 2010).

Data set [1] has as its target class A β-lactamase TEM-1 (Escherichia coli, UniProt P62593). In words: β-Lactamase inhibition, IC50 determination (nitrocefin, spectrophotometric). The format is biochemical, E. Coli. The method, boiled down: (§1)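 Purified enzymes TEM-1 (4.3 nM), Imi-1 (7.1 nM), CcrA (1.2 nM) and AmpC (2.1 nM) were preincubated with inhibitor 10 min at 25 °C in 50 mM PO4, pH 7.0. Nitrocefin (50 μg/ml) hydrolysis rates at 495 nm over 5 min gave % inhibition versus control; IC50 determined graphically.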

Data set [2] concerns the target class A β-lactamase Imi-1 (Enterobacter cloacae, UniProt Q46991). Described as above. The format is biochemical.
The target of data set [3] is class B enzyme CcrA (Bacteroides fragilis, UniProt P25910). Described as above. The format is biochemical. The following applies: enzyme 1.2 nM; 10 min preincubation at 25° C.; nitrocefin 50 μg/ml; 50 mM PO4, pH 7.0; read-out: IC50 (nM) Class B Ccr. Put shortly: as §1
Sequence of class B enzyme CcrA (P25910 19-249): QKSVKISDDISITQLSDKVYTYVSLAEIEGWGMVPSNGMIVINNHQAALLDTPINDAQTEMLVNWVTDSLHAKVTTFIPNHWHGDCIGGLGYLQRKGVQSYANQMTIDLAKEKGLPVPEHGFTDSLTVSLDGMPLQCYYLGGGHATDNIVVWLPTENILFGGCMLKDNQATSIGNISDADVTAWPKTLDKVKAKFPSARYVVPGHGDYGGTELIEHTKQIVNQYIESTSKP
In data set [4] the target is class C enzyme AmpC (Enterobacter cloacae, UniProt P05364). Kind of data set: biochemical. Also noted: species or system Enterobacter cloaca. The method, boiled down:
as §1

Data set [5] concerns class-A producing pathogens. The following applies: background statement; cited from earlier work.
For data set [6], the system named is class C producing organisms. The following applies: background statement; cited from earlier work.

Sequence of class C enzyme AmpC (P05364 21-381): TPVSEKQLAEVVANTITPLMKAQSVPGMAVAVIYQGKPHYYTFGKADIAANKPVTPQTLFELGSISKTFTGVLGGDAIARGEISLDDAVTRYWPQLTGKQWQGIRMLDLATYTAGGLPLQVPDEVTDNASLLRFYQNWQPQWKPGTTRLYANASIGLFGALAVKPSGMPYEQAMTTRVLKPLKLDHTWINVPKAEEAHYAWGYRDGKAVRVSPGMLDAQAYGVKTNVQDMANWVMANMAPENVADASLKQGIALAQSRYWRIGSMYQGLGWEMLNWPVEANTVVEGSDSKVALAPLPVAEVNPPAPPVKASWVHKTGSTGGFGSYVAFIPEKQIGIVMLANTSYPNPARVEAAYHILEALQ
Sequence of class A β-lactamase TEM-1 (P62593 24-286 limits assumed): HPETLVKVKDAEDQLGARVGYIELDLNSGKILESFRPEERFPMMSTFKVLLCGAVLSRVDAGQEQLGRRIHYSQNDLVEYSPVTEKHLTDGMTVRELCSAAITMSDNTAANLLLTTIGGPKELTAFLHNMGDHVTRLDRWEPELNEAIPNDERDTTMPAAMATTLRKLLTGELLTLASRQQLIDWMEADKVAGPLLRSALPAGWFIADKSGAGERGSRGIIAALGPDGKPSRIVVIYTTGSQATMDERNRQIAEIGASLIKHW
Sequence of class A β-lactamase Imi-1 (Q46991 entry or part of it): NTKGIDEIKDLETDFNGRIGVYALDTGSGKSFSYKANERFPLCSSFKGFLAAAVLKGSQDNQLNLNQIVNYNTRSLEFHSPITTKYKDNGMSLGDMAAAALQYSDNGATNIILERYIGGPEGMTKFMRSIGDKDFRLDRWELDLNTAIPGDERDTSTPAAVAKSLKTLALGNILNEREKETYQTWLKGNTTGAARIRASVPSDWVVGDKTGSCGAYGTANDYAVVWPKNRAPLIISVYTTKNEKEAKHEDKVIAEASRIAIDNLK

The compound `O=C([O-])C1=CS[C@@H]2/C(=C\c3ccc4nc5n(c4c3)CCCS5)C(=O)N12.[Na+]` [Example 29, (5R,6Z)-6-(3,4-dihydro-2H-[1,3]thiazino[3,2-a]benzimidazol-7-ylmethylene)-7-oxo-4-thia-1-azabicyclo[3.2.0]hept-2-ene-2-carboxylic acid, sodium salt] came in with a melting point of more than 250 °C. The same compound came in with a half-inhibitory concentration (IC50) in data set [1] of 0.015 µM. For the same compound, the half-inhibitory concentration (IC50) in data set [2] was found to be 0.3 µM. The half-maximal inhibitory concentration (IC50) in data set [3] turned out to be 240 nM. It took 0.018 µM to reach half-maximal inhibition in data set [4] (IC50).
For `O=C([O-])C1=CS[C@@H]2/C(=C\c3ccc4nc5sccn5c4c3)C(=O)N12.[Na+]` [Example 30, (5R,6Z)-7-oxo-6-([1,3]thiazolo[3,2-a]benzimidazol-6-ylmethylene)-4-thia-1-azabicyclo[3.2.0]hept-2-ene-2-carboxylic acid, sodium salt] the same measures were more than 250 °C, 0.046 µM, 0.2 µM, 97 nM and 0.0093 µM.
For the compound `O=C(O)[C@H]1/C(=C/CO)O[C@@H]2CC(=O)N21` [clavulanic acid], the “effectiveness against class-A producing pathogens” value in data set [5] is given as “effective”. Also, in data set [6], the “effectiveness against class C producing organisms” value was “ineffective”.
For the compound `CC1(C)[C@H](C(=O)O)N2C(=O)C[C@H]2S1(=O)=O` [sulbactam], the “effectiveness against class-A producing pathogens” value in data set [5] was “effective”. Moreover, the “effectiveness against class C producing organisms” value in data set [6] is given as “ineffective”.
Turning to `C[C@]1(Cn2ccnn2)[C@H](C(=O)O)N2C(=O)C[C@H]2S1(=O)=O` [tazobactam], in data set [5], the “effectiveness against class-A producing pathogens” value is “effective”. The “effectiveness against class C producing organisms” value in data set [6] is on record as “ineffective”.
